Results from patent publication EP4786454A1, “HETEROARYL DERIVATIVE AND USE THEREOF” (priority 2023, dated 2025).
pIC50: −log10 of the molar value. Where two headings read alike, the source gives them in different places.

What was measured:
male CD-1 mice = assay: Maximal electroshock-induced epilepsy model, behavioral pharmacodynamics; assay type: in vivo; details: 5 mg/kg orally, one hour before electrical stimulation
Excerpt: This study used behavioral tests in male CD-1 mice to investigate the effects of test compounds on acute epileptic seizures behavior induced by maximal electroshock.
Male CD-1 mice (25 to 35g) were used as the experimental animals and fed with standard feed (Beijing Vital River Laboratory Animal Technology Co., Ltd.).
After arriving at the animal facility, the experimental animals needed to acclimatize for at least one week. The mice were observed daily for vital signs, and randomly divided into groups according to their body weights one day before the drug administration. One hour before the electrical stimulation, different dosages of the test compound were orally administered to each group. On the day of the assay, the male CD-1 mice in each group were anesthetized locally at the cornea with 2% lidocaine. Then, silver bipolar electrodes were used to electrically stimulate the cornea of the mice with 18 mA, 60 Hz, a pulse width of 0.6 ms, and a stimulation time of 1 s to induce seizures. Subsequently, the latency of seizures and the duration of limb rigidity in mice after the electrical stimulation were observed, and the protection rate from seizures for each group was statistically analyzed.

CYP2C19 = target: T1, CYP2C19 (Homo sapiens, UniProt P33261); assay: Drug-drug interaction, CYP inhibition in human liver microsomes, cocktail method; assay type: in vitro ADME
T1 construct: from tissue; host or cells: human liver microsomes
T1 sequence (P33261 whole entry): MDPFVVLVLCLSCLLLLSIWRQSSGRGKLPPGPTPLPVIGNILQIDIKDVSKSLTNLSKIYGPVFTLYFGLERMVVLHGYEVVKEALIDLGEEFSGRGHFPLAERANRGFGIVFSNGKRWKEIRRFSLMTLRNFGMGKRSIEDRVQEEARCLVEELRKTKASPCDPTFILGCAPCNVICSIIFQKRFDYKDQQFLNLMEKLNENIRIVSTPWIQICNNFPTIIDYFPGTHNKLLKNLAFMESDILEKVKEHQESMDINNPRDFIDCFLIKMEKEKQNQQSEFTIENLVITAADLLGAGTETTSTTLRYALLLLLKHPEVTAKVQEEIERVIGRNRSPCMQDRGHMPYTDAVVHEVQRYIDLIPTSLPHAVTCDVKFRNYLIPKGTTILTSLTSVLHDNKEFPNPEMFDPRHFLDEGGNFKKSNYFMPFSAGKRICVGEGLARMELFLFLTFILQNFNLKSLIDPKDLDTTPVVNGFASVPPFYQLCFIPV
Method: (§1) The inhibitory effects of compounds on the activity of human liver microsomal cytochrome P450 isoenzymes (CYP1A2, CYP2C9, CYP2C19, CYP2D6, and CYP3A) were evaluated using a cocktail method with specific probe substrates for CYP1A2, CYP2C9, CYP2C19, CYP2D6, and CYP3A.
(§2) Human liver microsomes, probe substrates, positive control inhibitor, and reduced nicotinamide adenine dinucleotide phosphate.
(§3) 20 µL of a substrate solution was added to the corresponding well of a reaction plate, and 20 µL of potassium phosphate buffer was added to the blank wells.
(§4) 2 µL of a test compound working solution and positive control working solution were added to the corresponding wells, and 2 µL of solvent was added to the inhibitor-free wells and blank wells.
(§5) Human liver microsomal working solution was prepared, and 158 µL of human liver microsomal working solution was added to each well of the reaction plate.
(§6) The reaction plate was preheated at 37.0 °C for 10 minutes.
(§7) 20 µL of NADPH cofactor working solution was added to the reaction plate to initiate the reaction.
(§8) The mixture was mixed and incubated in a 37.0 °C water bath for 10 minutes, and 400 µL of stop solution was added to the reaction plate to terminate the reaction.
(§9) The sample plate was placed in a centrifuge, and centrifuged at 4000 rpm for 20 minutes.
(§10) 200 µL of supernatant was taken out, and appropriate 100 µL of pure water was added for dilution. The plate was shaken until the mixture was mixed well.
(§11) The analysis was performed using liquid chromatography-tandem mass spectrometry (LC-MS/MS).
(§12) The IC50 values of the assay samples were calculated by performing a three-parameter or four-parameter nonlinear regression analysis using XL fit software, with the remaining percentage of activity as the ordinate and the assay sample concentration as the abscissa. When the IC50 obtained by fitting with XL fit software was greater than the maximum administration concentration (50.0 µM) or IC50 could not be obtained by fitting, the IC50 value was marked as ">50.0 µM".
(§13) Three-parameter equation: y = (max)/(1 + (((x)/(IC50)))^−hillslope) [formula]
(§14) Four-parameter equation: y = min + (max−min)/(1 + (((x)/(IC50)))^−hillslope) [formula] max: maximum enzyme activity; min: minimum enzyme activity; x: concentration of the assay sample or positive control inhibitor; y: enzyme activity at the corresponding concentration; hillslope: slope; IC50: half-maximal inhibitory concentration; the four-parameter equation was used when the minimum enzyme activity was within ±10%, otherwise the three-parameter equation was used. Drug-drug interaction assay results of the compounds of the present disclosure

CYP3A4 = CYP3A4 (Homo sapiens, UniProt P08684); assay: as above; assay type: in vitro ADME
Chain of CYP3A4 (P08684 2-503): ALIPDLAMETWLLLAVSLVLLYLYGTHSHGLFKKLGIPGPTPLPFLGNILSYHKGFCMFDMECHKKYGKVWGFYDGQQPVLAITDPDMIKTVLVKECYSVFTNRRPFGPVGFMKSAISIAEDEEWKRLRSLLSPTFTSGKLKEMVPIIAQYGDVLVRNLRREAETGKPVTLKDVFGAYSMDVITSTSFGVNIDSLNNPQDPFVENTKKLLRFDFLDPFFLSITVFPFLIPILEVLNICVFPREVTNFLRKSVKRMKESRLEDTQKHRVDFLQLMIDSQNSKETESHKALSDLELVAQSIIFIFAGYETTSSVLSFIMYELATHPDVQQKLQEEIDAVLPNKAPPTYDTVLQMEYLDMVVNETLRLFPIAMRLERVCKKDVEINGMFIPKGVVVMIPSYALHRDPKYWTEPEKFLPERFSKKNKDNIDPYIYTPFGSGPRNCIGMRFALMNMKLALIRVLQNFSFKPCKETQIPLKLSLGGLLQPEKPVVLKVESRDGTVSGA
Method: as §1, §2, §3, §4, §5, §6, §7, §8, §9, §10, §11, §12, §13, §14

CYP2D6 = target: T2, CYP2D6 (Homo sapiens, UniProt P10635); assay: as above; assay type: in vitro ADME
T2 construct: from tissue; host or cells: human liver microsomes
T2 sequence (P10635 whole entry): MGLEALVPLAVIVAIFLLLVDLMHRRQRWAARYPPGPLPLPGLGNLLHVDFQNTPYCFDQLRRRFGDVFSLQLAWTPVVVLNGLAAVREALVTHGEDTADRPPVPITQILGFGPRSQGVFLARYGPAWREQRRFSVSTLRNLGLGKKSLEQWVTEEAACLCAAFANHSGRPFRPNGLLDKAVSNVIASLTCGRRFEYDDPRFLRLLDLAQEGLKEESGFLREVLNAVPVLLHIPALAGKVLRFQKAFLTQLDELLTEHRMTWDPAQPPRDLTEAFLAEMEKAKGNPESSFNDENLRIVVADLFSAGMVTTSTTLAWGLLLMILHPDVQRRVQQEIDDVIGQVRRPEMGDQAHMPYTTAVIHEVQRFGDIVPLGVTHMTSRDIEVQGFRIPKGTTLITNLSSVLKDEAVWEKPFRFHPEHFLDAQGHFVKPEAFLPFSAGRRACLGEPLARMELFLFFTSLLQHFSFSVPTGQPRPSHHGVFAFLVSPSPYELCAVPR
Method: as §1, §2, §3, §4, §5, §6, §7, §8, §9, §10, §11, §12, §13, §14

CYP2C9 = target: T3, CYP2C9 (Homo sapiens, UniProt P11712); assay: as above; assay type: in vitro ADME
T3 construct: from tissue; host or cells: human liver microsomes
T3 sequence (P11712 whole entry): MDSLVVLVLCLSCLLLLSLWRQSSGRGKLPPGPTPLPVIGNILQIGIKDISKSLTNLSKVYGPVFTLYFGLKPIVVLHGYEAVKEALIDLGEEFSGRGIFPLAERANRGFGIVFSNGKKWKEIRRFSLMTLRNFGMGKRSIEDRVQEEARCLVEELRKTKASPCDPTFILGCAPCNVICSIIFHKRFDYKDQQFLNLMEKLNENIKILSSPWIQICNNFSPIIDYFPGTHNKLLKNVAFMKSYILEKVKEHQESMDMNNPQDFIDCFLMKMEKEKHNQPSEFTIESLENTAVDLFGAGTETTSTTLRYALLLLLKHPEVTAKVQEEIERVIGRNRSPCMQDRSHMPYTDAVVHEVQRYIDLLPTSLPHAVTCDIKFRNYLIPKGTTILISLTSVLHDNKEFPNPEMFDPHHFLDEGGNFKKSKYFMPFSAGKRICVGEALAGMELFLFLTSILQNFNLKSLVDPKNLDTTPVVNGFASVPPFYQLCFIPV
Method: as §1, §2, §3, §4, §5, §6, §7, §8, §9, §10, §11, §12, §13, §14

CYP1A2 = target: T4, CYP1A2 (Homo sapiens, UniProt P05177); assay: as above; assay type: in vitro ADME
T4 construct: from tissue; host or cells: human liver microsomes
T4 sequence (P05177 1-516): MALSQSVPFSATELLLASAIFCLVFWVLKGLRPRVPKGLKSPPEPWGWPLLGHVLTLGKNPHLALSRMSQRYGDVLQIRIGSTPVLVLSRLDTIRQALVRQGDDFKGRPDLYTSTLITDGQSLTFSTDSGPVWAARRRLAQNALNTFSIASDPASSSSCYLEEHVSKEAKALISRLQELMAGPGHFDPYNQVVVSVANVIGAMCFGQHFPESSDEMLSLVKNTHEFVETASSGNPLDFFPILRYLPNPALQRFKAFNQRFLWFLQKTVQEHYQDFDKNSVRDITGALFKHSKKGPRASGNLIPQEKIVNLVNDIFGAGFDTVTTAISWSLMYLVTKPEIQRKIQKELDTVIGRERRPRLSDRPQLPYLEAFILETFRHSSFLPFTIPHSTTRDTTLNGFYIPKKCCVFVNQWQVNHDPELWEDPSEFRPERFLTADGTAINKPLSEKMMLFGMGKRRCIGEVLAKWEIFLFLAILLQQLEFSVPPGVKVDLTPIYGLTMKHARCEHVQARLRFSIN
Method: as §1, §2, §3, §4, §5, §6, §7, §8, §9, §10, §11, §12, §13, §14

[1] = human liver microsomes, maximum concentration 50.0 µM, read-out: CYP 2C19 (IC50)
[2] = human liver microsomes, maximum concentration 50.0 µM, read-out: CYP 3A4 (IC50)
[3] = human liver microsomes, maximum concentration 50.0 µM, read-out: CYP 2D6 (IC50)
[4] = human liver microsomes, maximum concentration 50.0 µM, read-out: CYP 2C9 (IC50)
[5] = human liver microsomes, maximum concentration 50.0 µM, read-out: CYP 1A2 (IC50)

## CC(C)(C)CC(=O)Nc1nc2c(F)cc(C#N)cn2c1C1=CCCC1 [Compound 3]
Male CD-1 mice
  Protection rate from seizures: 66.7%
CYP2C19; [1]
  pIC50: < 4.30
CYP3A4; [2]
  IC50 at 10 min: > 50 µM
CYP2D6; [3]
  pIC50: < 4.30
CYP2C9; [4]
  pIC50: < 4.30
CYP1A2; [5]
  pIC50: < 4.30

## CC(C)(C)CC(=O)Nc1nc2c(F)cc(C#N)cn2c1-c1ccc(OC(F)(F)F)cc1 [Compound 1]
Male CD-1 mice
  Protection rate from seizures: 66.7%
CYP2C19
  pIC50: 4.51
CYP3A4; human, microsomes
  IC50 at 10 min: 14 µM
CYP2D6
  pIC50: 4.38
CYP2C9
  pIC50: 4.34
CYP1A2
  pIC50: < 4.30

## CC(C)(C)CC(=O)Nc1nc2c(F)cc(C#N)cn2c1C12CC(C1)C2 [Compound 5]
CYP2C19; [1]
  pIC50: < 4.30
CYP3A4; [2]
  IC50 at 10 min: > 50 µM
CYP2D6; [3]
  pIC50: < 4.30
CYP2C9; [4]
  pIC50: < 4.30
CYP1A2; [5]
  pIC50: < 4.30

## CC(C)(C)CC(=O)Nc1nc2c(C(F)(F)F)cc(C#N)cn2c1C12CC(C1)C2 [Compound 6]
CYP2C19; [1]
  pIC50: < 4.30
CYP3A4; [2]
  IC50 at 10 min: > 50 µM
CYP2D6; [3]
  pIC50: < 4.30
CYP2C9; [4]
  pIC50: < 4.30
CYP1A2; [5]
  pIC50: < 4.30
